{
  "source": "patent US9399031B2",
  "about": "“Combined use of amides of mono- and dicarboxylic acids and silymarin in the treatment of renal diseases” (Epitech Group S.r.l., priority 2013, dated 2016)",
  "key": {"[1]": {"test_system": "renal ischemia/reperfusion", "test": "Experimental renal ischemia/reperfusion model", "type": "in vivo", "conditions": "mice, bilateral renal ischemia 30 minutes, 6 hours post-reperfusion; compared to the carrier alone; FIGS. 1 and 2", "method": "After being anesthesized with sodium pentobarbital (50 mg/kg i.p.), mice were placed on a heated mat to keep their body temperature at 37° C. during surgery. After a laparatomy, mice were subjected to bilateral renal ischemia during 30 minutes, during which renal arteries and veins were occluded by microaneurysm clamps. The ischemia time selected was based on the time capable of maximizing the reproducibility of the renal function unbalance, while minimizing animal death. After removing renal clamps, kidneys were observed during additional 5 minutes to confirm complete reperfusion, and subsequently 1 ml saline was injected into the abdomen and incision was sutured. […] All plasma samples were analyzed for assessing the biochemical parameters within 24 hours post-withdrawal. Plasma concentrations of urea and creatinine were measured as indicators of the impaired glomerular function. […] Absorbance change rate was spectrometrically measured at 650 nm. […] Determination of Malondialdehyde Levels Malondialdehyde (MDA) levels in kidneys were determined as an indicator of lipid peroxidation. […] Supernatant absorbance was spectrometrically measured at 532 nm. MDA levels were expressed as μM/100 mg wet tissue. […] Total scoring for each kidney was calculated by the sum of all the 100 scores, with a maximum score of 300. […]"}, "[2]": {"test_system": "dismetabolic neuropathies", "conditions": "animal model of diabetes by streptozotocin; cited from earlier work"}},
  "data": [
    {"smiles": "CCCCCCCCCCCCCCCC(=O)NCCO", "note": "[PEA, Palmitoylethanolamide]", "values": [
      {"measurement": "functional and tissue parameters for kidneys (plasma AST, γGT, creatinine, urea; MDA levels, MPO renal activity, histologic assessment)", "setting": "[1]", "result": "neither Silymarin alone nor PEA alone, when used at the same doses as in the combination, showed an improvement effect"},
      {"measurement": "allodynia", "setting": "[2]", "result": "suppresses allodynia"},
      {"measurement": "blood insulin levels", "setting": "[2]", "result": "increase in blood insulin levels"},
      {"measurement": "body weight", "setting": "[2]", "result": "partial body weight recovery"}
    ]}
  ]
}
